This passage reports IC50 results from US6166050A, “3,4-diamino-3-cyclobutene-1,2-dione derivatives which inhibit leukocyte adhesion mediated by VLA-4” (American Home Products Corporation, priority 1999, dated 2000).

By IC50 is commonly meant the concentration that inhibits the measured activity by half.

T1 sequence (P13612 34-1032): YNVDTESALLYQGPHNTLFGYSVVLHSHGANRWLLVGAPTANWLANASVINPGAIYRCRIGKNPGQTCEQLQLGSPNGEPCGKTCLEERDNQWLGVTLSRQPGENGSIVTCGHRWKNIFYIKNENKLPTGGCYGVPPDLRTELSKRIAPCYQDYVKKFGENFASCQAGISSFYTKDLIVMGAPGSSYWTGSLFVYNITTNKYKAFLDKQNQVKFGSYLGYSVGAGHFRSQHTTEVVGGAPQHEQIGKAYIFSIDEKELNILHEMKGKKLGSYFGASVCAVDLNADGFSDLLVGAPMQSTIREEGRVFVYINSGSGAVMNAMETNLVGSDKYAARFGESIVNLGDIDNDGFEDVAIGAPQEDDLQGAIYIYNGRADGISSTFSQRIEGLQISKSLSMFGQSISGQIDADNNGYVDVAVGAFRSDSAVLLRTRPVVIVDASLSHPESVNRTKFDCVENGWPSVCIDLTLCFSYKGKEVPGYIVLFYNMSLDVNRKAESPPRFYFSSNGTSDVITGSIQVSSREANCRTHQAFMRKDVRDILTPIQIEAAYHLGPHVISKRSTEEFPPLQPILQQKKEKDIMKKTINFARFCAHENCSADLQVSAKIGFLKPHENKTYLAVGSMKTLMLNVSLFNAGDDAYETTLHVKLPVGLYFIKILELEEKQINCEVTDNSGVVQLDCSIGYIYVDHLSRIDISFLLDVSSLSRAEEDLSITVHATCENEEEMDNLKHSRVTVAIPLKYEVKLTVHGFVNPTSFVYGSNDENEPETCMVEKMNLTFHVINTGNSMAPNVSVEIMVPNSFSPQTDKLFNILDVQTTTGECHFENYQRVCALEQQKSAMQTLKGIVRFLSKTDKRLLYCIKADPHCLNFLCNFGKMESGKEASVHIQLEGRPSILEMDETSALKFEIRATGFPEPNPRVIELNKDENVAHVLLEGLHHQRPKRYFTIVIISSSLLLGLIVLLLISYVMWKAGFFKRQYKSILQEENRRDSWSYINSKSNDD
T1 sequence (P05556 21-798): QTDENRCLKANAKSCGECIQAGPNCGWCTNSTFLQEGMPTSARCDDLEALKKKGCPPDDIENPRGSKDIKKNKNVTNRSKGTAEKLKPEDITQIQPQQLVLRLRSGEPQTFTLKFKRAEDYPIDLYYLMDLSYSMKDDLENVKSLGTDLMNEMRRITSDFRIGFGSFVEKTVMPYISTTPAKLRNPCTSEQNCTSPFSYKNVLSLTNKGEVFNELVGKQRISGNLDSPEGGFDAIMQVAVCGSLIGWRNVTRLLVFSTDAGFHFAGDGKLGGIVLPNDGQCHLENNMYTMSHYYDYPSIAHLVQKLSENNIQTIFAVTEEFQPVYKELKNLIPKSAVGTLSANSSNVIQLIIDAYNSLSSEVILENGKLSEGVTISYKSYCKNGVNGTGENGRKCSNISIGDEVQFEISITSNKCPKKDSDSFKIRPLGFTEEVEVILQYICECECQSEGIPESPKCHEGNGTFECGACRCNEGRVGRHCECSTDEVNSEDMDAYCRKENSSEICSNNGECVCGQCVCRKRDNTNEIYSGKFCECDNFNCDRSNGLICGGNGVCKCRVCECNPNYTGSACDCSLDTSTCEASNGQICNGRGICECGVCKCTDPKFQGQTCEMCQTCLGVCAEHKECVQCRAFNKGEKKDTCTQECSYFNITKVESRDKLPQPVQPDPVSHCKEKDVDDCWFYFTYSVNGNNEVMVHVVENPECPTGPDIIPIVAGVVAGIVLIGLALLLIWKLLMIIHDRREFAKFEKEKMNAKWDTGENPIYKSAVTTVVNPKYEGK

The first assay concerns the target T1, α4 β1 integrin (VLA-4) (Homo sapiens, UniProt P05556+P13612).
T1 construct: Jurkat cells (ATCC #TIB-153) which express high levels of α4 β1 integrin (VLA-4); host or cells: Jurkat cells
The assay is described as follows: Monovalent FACS Assay for α4 β1 Integrin/VCAM-1 Binding (inhibition of soluble VCAM-1 binding to Jurkat cells). As to conditions: Jurkat cells, rsVCAM-1; IC50 reflects 50% receptor occupancy; unit nM; read-out: IC50 (FACS). How it is done:
The foregoing compounds were tested for VLA-4 binding activity using the following monvalent FACS assay. The IC50 for a compound reflects 50% receptor occupancy.
Monovalent FACS Assay for α4 β1 Integrin/VCAM-1 Binding
The VLA-4 binding activity of exemplary compounds was measured by measuring the inhibition of the interaction of soluble VCAM-1 with Jurkat cells (ATCC #TIB-153) which express high levels of α4 β1 integrin (VLA-4) using a modification of the fluorescence activated cell sorter (FACS) assay described by Yednock, et al., J. Biol. Chem., 1995, 270:28740. VCAM-1 interacts with the cell surface in an α4 β1 integrin-dependent fashion.
Jurkat cells were grown in RPMI 1640 supplemented with 10% fetal bovine serum, penicillin, streptomycin and glutamine as described by Yednock, supra.
Recombinant soluble VCAM-1 (rsVCAM-1) was produced in a baculovirus expression system as a chimeric fusion protein containing the seven immunoglobulin domains of VCAM-1 on the N-terminus and the human IgG1 heavy chain constant region on the C-terminus as described by Yednock, supra. Supernatant containing approximately 10 ug/ml rsVCAM-1 was collected after 72 hours and used in the assay without purification.
Jurkat cells (approximately 10^7 cells/ml) were treated with 1.5 mM MnCl2 and 5 μg/ml 15/7 for 30 minutes on ice to activate β1 integrin. Mn^+2 activates the receptor to enhance ligand binding, and 15/7 is a monoclonal antibody that recognizes an activated/ligand occupied conformation of α4 β1 integrin and locks the molecule into this conformation thereby stabilizing the VCAM-1/α4 β1 integrin interaction. Yednock, et al., supra. Antibodies similar to 15/7 have been prepared and may be used in this assay. For example, see, Luque, et al., 1996, J. Bio. Chem., 271: 11067.
Aliquots of 25 μl cells were incubated for 30 minutes at room temperature with compounds using a standard 5-point serial dilution. 15 μl of rsVCAM-Fc-containing baculovirus supernatant was added to the cells and incubated for 30 minutes on ice as described in Yednock, et al., supra.
Cells were washed twice and resuspended in 100 μl of a 1:100 dilution of FITC-conjugated goat anti-human IgG to detect the human Ig-VCAM-1 construct diluted in assay media containing 2.5% mouse serum to block potential cross-reactivity with cell surface bound 15/7. Cells were incubated on ice for 30 minutes in the dark. Cells were washed twice and analyzed with a standard FACS analysis as described in Yednock, et al., supra. on a FACScan flow cytometer (Becton Dickinson, Mountain View, Calif.).
For the compound `CCCCCCN(CCCCCC)c1c(N[C@@H](Cc2ccc(NC(=O)c3ccccc3)cc2)C(=O)O)c(=O)c1=O` [Example 26, (S)-3-(4-Benzoylamino-phenyl)-2-(2-dihexylamino-3,4-dioxo-cyclobut-1-enylamino)-propionic acid], the IC50 amounted to 150 nM.
`CCCCCCN(CCCCCC)c1c(N[C@@H](Cc2cn(Cc3ccccc3)cn2)C(=O)O)c(=O)c1=O` [Example 29, (S)-3-(1-Benzyl-1H-imidazol-4-yl)-2-(2-dihexylamino-3,4-dioxo-cyclobut-1-enylamino)-propionic acid]: the IC50 worked out at 631 nM.
Regarding `CCCCCCN(CCCCCC)c1c(N[C@@H](Cc2ccc(OCCCN(C)C)cc2)C(=O)O)c(=O)c1=O` [Example 32, N-(2-Dihexylamino-3,4-dioxo-cyclobut-1-enylamino)-O-(3-dimethylamino-propyl)-L-tyrosine], the IC50 turned out to be 12 nM.
Consider `CN(CCc1ccncc1)c1c(N[C@@H](Cc2ccc(NC(=O)c3ccncc3)cc2)C(=O)O)c(=O)c1=O` [Example 35, N-[2-[Methyl[2-(4-pyridinyl)ethyl]amino]-3,4-dioxo-1-cyclobuten-1yl]-4-[(4-pyridinylcarbonyl)amino]-L-phenylalanine], for which the IC50 was 15 nM.
As for `CN(CCc1ccccc1)c1c(N[C@@H](Cc2ccc(NC(=O)c3ccncc3)cc2)C(=O)O)c(=O)c1=O` [Example 37, N-[2-[Methyl(2-phenylethyl)amino]-3,4-dioxo-1-cyclobuten-1-yl]-4-[(4-pyridinylcarbonyl)amino]-L-phenylalanine], the IC50 amounted to 2.2 nM.
For the compound `CCCCCCN(CCCCCC)c1c(N[C@@H](Cc2ccc(NC(=O)c3ccncc3)cc2)C(=O)O)c(=O)c1=O` [Example 39, N-[2-(Dihexylamino)-3,4-dioxo-1-cyclobuten-1-yl]-4-[(4-pyridinylcarbonyl)amino]-L-phenylalanine], the IC50 was 1.3 nM.
In the case of `CN(Cc1cccnc1)c1c(N[C@@H](Cc2ccc(NC(=O)c3ccncc3)cc2)C(=O)O)c(=O)c1=O` [Example 41, N-[2-(Methyl-pyridin-3-ylmethyl-amino)-3,4-dioxo-cyclobut-1-enyl]-4-[(pyridine-4-carbonyl)-amino]-L-phenylalanine], the IC50 amounted to 26 nM.
For the compound `CCCCCCN(CCCCCC)c1c(N[C@@H](Cc2ccc(NC(=O)c3cccnc3)cc2)C(=O)O)c(=O)c1=O` [Example 44, N-[2-(Dihexylamino)-3,4-dioxo-1-cyclobuten-1-yl]-4-[(3-pyridinylcarbonyl)amino]-L-phenylalanine], the IC50 was found to be 6.5 nM.
As for `CN(CCc1ccncc1)c1c(N[C@@H](Cc2ccc(NC(=O)c3cccnc3)cc2)C(=O)O)c(=O)c1=O` [Example 46], the half-inhibitory concentration (IC50) is 40 nM.
On the same count and under the same terms, for `CN(Cc1cccnc1)c1c(N[C@@H](Cc2ccc(NC(=O)c3cccnc3)cc2)C(=O)O)c(=O)c1=O` [Example 48, N-[2-(Methyl-pyridin-3-ylmethyl-amino)-3,4-dioxo-cyclobut-1-enyl]-4-[(pyridine-3-carbonyl)-amino]-L-phenylalanine] the value was 160 nM.
As to `CCCCCCN(CCCCCC)c1c(N[C@@H](Cc2ccc(NC(=O)C3CCN(C(=O)OCc4ccccc4)CC3)cc2)C(=O)O)c(=O)c1=O` [Example 53], the IC50 amounted to 71 nM.
With `CN(C)C(=O)Oc1ccc(C[C@H](Nc2c(N(C)CCc3ccccc3)c(=O)c2=O)C(=O)O)cc1` [Example 57], the half-inhibitory concentration (IC50) turned out to be 0.9 nM.
Same read-out and setting: in the case of `CCCCCCN(CCCCCC)c1c(N[C@@H](Cc2ccc(OC(=O)N(C)C)cc2)C(=O)O)c(=O)c1=O` [Example 59, (2S)-2-(2-Dihexylamino-3,4-dioxo-cyclobut-1-enylamino)-3-(4-dimethylcarbamoyloxy-phenyl)-propionic acid] it was 0.6 nM; in that of `CN(C)C(=O)Oc1ccc(C[C@H](Nc2c(N(C)Cc3cccnc3)c(=O)c2=O)C(=O)O)cc1` [Example 61, (2S)-3-(4-Dimethylcarbamoyloxy-phenyl)-2-[2-(methyl-pyridin-3-ylmethyl-amino)-3,4-dioxo-cyclobut-1-enylamino]-propionic acid], 8.3 nM.

Still in this assay, the particulars now being: Jurkat cells, rsVCAM-1; IC50 reflects 50% receptor occupancy; unit μM; read-out: IC50 (FACS).
With `O=C(O)[C@H](Cc1ccccc1)Nc1c(NCc2ccccc2)c(=O)c1=O` [Example 3, [2-(Benzylamino)-3,4-dioxo-cyclobut-1-enyl]-L-phenylalanine], the half-inhibitory concentration (IC50) was 58000 nM.
On to `O=C(O)[C@H](Cc1ccccc1)Nc1c(NC(c2ccccc2)c2ccccc2)c(=O)c1=O` [Example 5, [2-(benzhydrylamino)-3,4-dioxo-cyclobut-1-enyl]-L-phenylalanine], for which the IC50 was found to be 101000 nM.
In the case of `O=C(O)[C@H](Cc1ccccc1)Nc1c(NCCc2c[nH]c3ccccc23)c(=O)c1=O` [Example 7, 2-{2-[2-(1H-Indol-3-yl)-ethylamino]-3,4-dioxo-cyclobut-1-enylamino}-L-phenylalanine], the IC50 came to 52000 nM.
Still for that read-out and setting: for `O=C(O)[C@H](Cc1ccccc1)Nc1c(NCc2cccnc2)c(=O)c1=O` [Example 9, {3,4-Dioxo-2-[(pyridin-3-ylmethyl)-amino]-cyclobut-1-enyl}-L-phenylalanine] the value was 116000 nM; for `CCCCCCN(Cc1ccccc1)c1c(N[C@@H](Cc2ccccc2)C(=O)O)c(=O)c1=O` [Example 11, [2-(Benzyl-hexyl-amino)-3,4-dioxo-cyclobut-1-enyl]-L-phenylalanine], 4400 nM.
On to `O=C(O)[C@H](Cc1ccccc1)Nc1c(N(Cc2ccccc2)Cc2ccccc2)c(=O)c1=O` [Example 13, (2-Dibenzylamino-3,4-dioxo-cyclobut-1-enylamino)-L-phenylalanine], for which the half-maximal inhibitory concentration (IC50) is 4400 nM.
Regarding `CCCCCCN(CCCCCC)c1c(N[C@@H](Cc2ccccc2)C(=O)O)c(=O)c1=O` [Example 15, (S)-2-(2-Dihexylamino-3,4-dioxo-cyclobut-1-enylamino)-3-phenyl-propionic acid], the IC50 turned out to be 1500 nM.
Regarding `CCCCCCN(Cc1ccc2ccccc2c1)c1c(N[C@@H](Cc2ccccc2)C(=O)O)c(=O)c1=O` [Example 17, (S)-2-[2-(Hexyl-naphthalen-2-ylmethyl-amino)-3,4-dioxo-cyclobut-1-enylamino]-3-phenyl-propionic acid], the IC50 was found to be 36000 nM.
For the compound `CCCCCCN(Cc1ccc(N(C)C)cc1)c1c(N[C@@H](Cc2ccccc2)C(=O)O)c(=O)c1=O` [Example 19, (S)-2-{2-[(4-Dimethylamino-benzyl)-hexyl-amino]-3,4-dioxo-cyclobut-1-enylamino}-3-phenyl-propionic acid], the half-maximal inhibitory concentration (IC50) came out at 13000 nM.
As to `O=C(O)[C@H](Cc1ccccc1)Nc1c(N2CCN(c3ccccc3)CC2)c(=O)c1=O` [Example 21, N-[3,4-Dioxo-2-(4-phenyl-piperazin-1-yl)-cyclobut-1-en-1-yl]-L-phenylalanine], the concentration for half-maximal inhibition (IC50) amounted to 86000 nM.
On the same count and under the same terms, in the case of `CC(=O)N1CCN(c2c(N[C@@H](Cc3ccccc3)C(=O)O)c(=O)c2=O)CC1` [Example 23, (S)-2-[2-(4-Acetyl-piperazin-1-yl)-3,4-dioxo-cyclobut-1-enylamino]-3-phenyl-propionic acid] it was 40000 nM.
For the compound `CN(CCc1ccncc1)c1c(N[C@@H](Cc2ccccc2)C(=O)O)c(=O)c1=O` [Example 50, N-{2-[Methyl-(2-pyridin-4-yl-ethyl)-amino]-3,4-dioxo-cyclobut-1-enyl}-L-phenylalanine], the IC50 came to 9000 nM.
